Tests used:
[1] = test system: subjects with advanced hematologic malignancies undergoing myeloablative allogeneic hematopoietic cell transplantation; assay: Overall survival; format: in vivo, human; conditions: Example 3, tacrolimus-only relative to sirolimus-only patients
Description: Overall survival: OS was defined as the time from the date of transplant to the date of death from any cause or, for surviving patients, to the date of last follow-up. […] The difference was statistically significant (p=0.0242 by log-rank test).

[2] = test system: subjects with advanced hematologic malignancies undergoing myeloablative allogeneic hematopoietic cell transplantation; conditions: in vivo
Description: Acute GVHD was staged and graded per MAGIC Standardization criteria.
Acute GVHD was staged and graded per Mount Sinai Acute GvHD International Consortium (MAGIC) Standardization criteria.

[3] = test system: subjects with advanced hematologic malignancies undergoing myeloablative allogeneic hematopoietic cell transplantation; assay: Chronic GVHD, per NIH consensus criteria; format: in vivo, human; conditions: Example 3, serum tacrolimus trough level higher vs lower than 4 ng/ml
Description: Chronic GVHD was diagnosed, staged, and graded per the International NIH Chronic GVHD Diagnosis and Staging Consensus Working Group criteria.
Chronic GVHD: As chronic GVHD (cGVHD) is associated with significant morbidity and with decreased survival, reducing the severity or incidence of cGVHD has the potential to greatly benefit graft recipients. Chronic GVHD was diagnosed per 2014 International NIH Chronic GVHD Diagnosis and Staging Consensus Working Group criteria.
Analysis was conducted using a cutoff of 365 days (i.e., cGVHD events that occur after Day ^+365 were not included). […] Additionally, several subjects in the study group have undergone greater than 2.5 years of follow-up with no cGVHD symptoms reported.

[4] = test system: subjects with advanced hematologic malignancies undergoing myeloablative allogeneic hematopoietic cell transplantation; assay: Disease relapse / relapse-free survival / disease status after therapy; format: in vivo, human; conditions: Example 3, tacrolimus-only relative to sirolimus-only patients
Description: Incidence of disease relapse: For acute leukemias, relapse was defined as any of the following (MRD^+ alone was insufficient): (i) ≥5% blasts in the bone marrow or peripheral blood; or (ii) Reappearance of pre-transplant cytogenetic abnormality; or (iii) new evidence or redevelopment of extramedullary disease. For MDS, relapse was defined as any of the following: (i) satisfying criteria for evolution into acute leukemia; (ii) reappearance of pre-transplant morphologic abnormalities, detected in bone marrow specimens; or, (iii) reappearance of pre-transplant cytogenetic abnormality in at least one metaphase on each of two separate consecutive examinations at least one month apart, regardless of the number of metaphases analyzed.
Subjects in the study were first evaluated for relapse on day ^+90 post-transplant.

[5] = test system: subjects with advanced hematologic malignancies undergoing myeloablative allogeneic hematopoietic cell transplantation; assay: GVHD and relapse-free survival (GRFS); format: in vivo, human; conditions: Example 3, tacrolimus-only relative to sirolimus-only patients
Description: GVHD and relapse-free survival is a composite readout that can refer to survival without relapse or Grade ≥3 acute or extensive chronic GVHD. At the time of reporting, the percent of GVHD-free and relapse-free survival to one-year post-transplant was 74% for the study group, compared to 34% for the SOC cohort, as shown in FIG. 4F. The difference was statistically significant (p=0.0001 by log-rank test).

[6] = test system: Patients with hematologic malignancies; assay: Relapse, non-relapse mortality, relapse-free survival, GRFS and overall survival after transplant; format: in vivo, human; conditions: with Orca-T; relapse-free survival through 1 year; FIG. 14
Description: FIGS. 1A-B illustrate the schematics of the transplant according to the methods described herein (identified as High-Precision Orca-T or Orca-T) and the differences compared to a standard of care (SOC) cohort (identified as Conventional Transplant or SOC).

| SMILES | overall survival rates [1] | survival (FIG. 7E) [1] | GVHD rates [2] | chronic GVHD rates [3] | relapse rates [4] | GRFS rates [5] | effect of addition of thiotepa to busulfan-based conditioning regimens on relapse and non-relapse mortality [6] |
| --- | --- | --- | --- | --- | --- | --- | --- |
| C=CC[C@@H]1/C=C(\C)C[C@H](C)C[C@H](OC)[C@H]2O[C@@](O)(C(=O)C(=O)N3CCCC[C@H]3C(=O)O[C@H](/C(C)=C/[C@@H]3CC[C@@H](O)[C@H](OC)C3)[C@H](C)[C@@H](O)CC1=O)[C@H](C)C[C@@H]2OC [tacrolimus] | improved | improved | higher | improvements | improved | improved | – |
| S=P(N1CC1)(N1CC1)N1CC1 [thiotepa] | – | – | – | – | – | – | decreases relapse without increasing non-relapse mortality |
